Reference: BindingDB's records for doi:10.1016/j.bmcl.2009.10.040 (Methylgene, 2009)

Legend:
[1] = Inhibition of c-Met in human A549 cells by wound healing assay
[2] = Inhibition of c-Met in human DU145 cells assessed as cell scattering

## COc1cc2nccc(Oc3ccc(NC(=O)N4CCN(c5ccccc5)C4=O)cc3F)c2cc1OC
[1]
  IC50: 0.08 µM
[2]
  IC50: 0.08 µM
